Reference: publication PMC9100884, “Semi-Synthesis of N-Aryl Amide Analogs of Piperine from Piper nigrum and Evaluation of Their Antitrypanosomal, Antimalarial, and Anti-SARS-CoV-2 Main Protease Activities” (Molecules, 2022)
Read-outs that look alike come from different tables or passages of the source.

Columns and labels:
Vero E6 cell lines = experiment: Cytotoxicity against Vero E6 cells (CellTiter 96 AQueous One); assay type: cell-based; details: for EC50: Chlorocebus sabaeus, read-out: EC50 ± S.E.M. Vero E6
Procedure: The cytotoxicity of the active compound was tested with Vero E6 cell lines. Each cell line was seeded at 1 × 10^4 cells per well into 96-well plates in growth medium and incubated overnight. The compounds were prepared at the concentrations of 2–500 µM in DMSO and added to the cells at the DMSO final concentrations of 0.1%. Cells were incubated for 48 h before analyzing the cell viability using CellTiter 96® AQueous One Solution Cell Proliferation Assay kit (Promega, Madison, WI, USA) according to the manufacturer’s protocol. The plate was read at the A450 by VICTORTM X3 microplate reader (PerkinElmer, Waltham, MA, USA). The EC50 values of the cells were calculated from nonlinear regression analysis. The results were reported as means and standard error of mean (S.E.M.) from three biological independent experiments.

[1] = system: T. brucei rhodesiense (STB900); experiment: In vitro antitrypanosomal assay (resazurin); assay type: cell-based, Trypanosoma brucei rhodesiense; details: for IC50: Trypanosoma brucei, RHODESIENSE, read-out: IC50 ± S.E.M. Antitrypanosomal against T. brucei rhodesiense
Procedure: T. brucei rhodesiense (STB900) was maintained continuously in MEM/EBSS medium (pH 7.3) supplemented with 3 g/L sodium bicarbonate, 4.5 g/L glucose, 25 mM HEPES, 0.05 mM bathocuproinedisulfonic disodium salt, 1.5 mM L-cysteine, 1 mM hypoxanthine, 0.16 mM thymidine, 1 mM sodium pyruvate, 0.2 mM 2-mercaptoethanol, 1% MEM non-essential amino acid, and 15% v/v heated ([…]) FBS in a 5% CO2 incubator [47]. To evaluate the antitrypanosomal activity, trypanosome cells were seeded at 2 × 10^4 cells/well in 175 µL culture media/well and incubated with 25 µL of varying concentrations of each test compound in a 96-well plate under the culture conditions. […] Following 72 h incubation, 20 μL of resazurin was added to each well. The reaction was further incubated at 37 °C under 5% CO2 for 3 h to allow for the irreversible reduction of resazurin (violet color) to resorufin (pink color) by viable trypanosome cells. Fluorescence signals were measured by a spectrofluorometer using a 530-nm excitation wavelength and a 585-nm emission wavelength. […] The result for each compound was normalized using the control media for the overall background subtraction (0%), and untreated T. brucei rhodesiense with 0.1% DMSO was used as the 100% control.

3D7 P. falciparum = experiment: In vitro antimalarial assay (SYBR Green I); assay type: cell-based; details: Plasmodium falciparum, read-out: IC50 ± S.E.M. Antimalarial against 3D7 P. falciparum
Vero cells = experiment: Cytotoxicity against Vero cells (sulforhodamine B assay); assay type: cell-based, African green monkey; details: for EC50: Chlorocebus sabaeus, 72 h, read-out: EC50 ± S.E.M. Vero; for cytotoxicity against Vero cells (in words): at the concentration of 100 μM
Procedure: Cytotoxicity test of selected analogues was performed against the African green monkey kidney fibroblast (Vero cells) obtained from Bioassay laboratory, BIOTEC, NSTDA, Thailand. The cells of less than 20 passages were maintained continuously in a MEM/EBSS medium supplemented with 10% heated fetal bovine serum (GE Healthcare, PAA Laboratories GmbH, Pasching, Aurstria), 2.2 g/L sodium bicarbonate (Emsure, ACS, Reag. Ph Eur, Darmstadt, Germany), and 1% sodium pyruvate (Sigma). Cytotoxicity was determined by sulforhodamine B assay. Briefly, 1.9 × 10^4 Vero cells were incubated with each compound at final concentrations of 0.0001–100 µM at 37 °C under 5% CO2. After incubation for 72 h, the cells were fixed with 10% trichloroacetic acid (Sigma) at 4 °C for 45 min, washed gently with tap-water and air-dried at room temperature for overnight. Then, the fixed protein was stained with 0.057% w/v of sulforhodamine B (Sigma). The excess dye was washed repeatedly with 1% v/v of acetic acid. The plates were allowed to air-dry at room temperature for overnight. Finally, the protein-bound dye in each well was dissolved with 50 µL of 10× Tris-based solution. The optical density (OD) was measured by a microplate reader at wavelength 510 nm. The EC50 value of each compound was determined from the dose-response curve. Data were shown as mean and standard error of the mean (S.E.M.) of three biological independent experiments.

[2] = Vero C1008, cytotoxicity, Vero E6 cells, 48 h, 2–500 µM
[3] = cytotoxicity, Vero cells, sulforhodamine B, 0.0001–100 µM

Row | SMILES | EC50 (Vero E6 cell lines; Vero C1008, 48 h) | cytotoxicity against Vero E6 cell lines (in words) (Vero E6 cell lines; at the concentration of 500 μM) | IC50 ([1]; 72 h) | activity against T. brucei rhodesiense (in words) ([1]; at 100 μM) | IC50 (3D7 P. falciparum; 3D7, 48 h) | EC50 (Vero cells; Vero) | cytotoxicity against Vero cells (in words) (Vero cells) | EC50 (Vero E6 cell lines; [2]) | IC50 ([1]; 72 h incubation, resazurin) | IC50 (3D7 P. falciparum; 3D7 strain, 48 h, SYBR Green I) | EC50 (Vero cells; [3])
1 | O=C(O)/C=C/C=C/c1ccc2c(c1)OCO2 [Piperic acid (2), Piperic acid] | > 500 µM | non-toxic | > 100 µM | inactive | 63.5 ± 2.43 µM | > 100 µM | non-toxic | – | – | – | –
2 | O=C(/C=C/C=C/c1ccc2c(c1)OCO2)N1CCCCC1 [Piperine (1), Piperine] | – | – | – | – | – | – | non-toxic | 132 ± 2.91 µM | 56.7 ± 0.98 µM | 61.2 ± 2.83 µM | > 100 µM
3 | N=C(N)c1ccc(OCCCCCOc2ccc(C(=N)N)cc2)cc1 [Pentamidine, reference compound] | – | – | – | – | – | – | – | – | 0.016 ± 0.002 µM | – | –
4 | COc1ccc(OC)c(NC(=O)/C=C/C=C/c2ccc3c(c2)OCO3)c1 [Compound 5, (2E,4E)-5-(benzo[d][1,3]dioxol-5-yl)-N-(2,5-dimethoxyphenyl)penta-2,4-dienamide] | – | – | – | – | – | – | no cytotoxicity | > 500 µM | 15.5 ± 3.09 µM | 24.6 ± 1.91 µM | > 100 µM
5 | O=C(/C=C/C=C/c1ccc2c(c1)OCO2)Nc1ccccc1 [Compound 3, (2E,4E)-5-(benzo[d][1,3]dioxol-5-yl)-N-phenylpenta-2,4-dienamide] | – | – | – | – | – | – | – | > 500 µM | 53.5 ± 1.77 µM | 25.8 ± 1.56 µM | > 100 µM
6 | COc1ccc(NC(=O)/C=C/C=C/c2ccc3c(c2)OCO3)c(OC)c1 [Compound 4, (2E,4E)-5-(benzo[d][1,3]dioxol-5-yl)-N-(2,4-dimethoxyphenyl)penta-2,4-dienamide] | – | – | – | – | – | – | – | > 500 µM | 19.9 ± 2.28 µM | 29.4 ± 3.54 µM | > 100 µM
